Source: patent publication EP4257135A1, “BENZIMIDAZOLE DERIVATIVES FOR PULMONARY ARTERIAL HYPERTENSION” (Justus-Liebig-Universität Gießen, priority 2022, dated 2023)

Columns and labels:
[1] = system: FHR-PAH; test: Fawn-hooded hypertensive rat model of established PAH, right heart catheterisation and histology; type: in vivo, Ratten; conditions: FHR-PAH rats, three times weekly for two weeks
Excerpt: (§1) Um das therapeutische Potenzial der EP300/CREBBP-Hemmung in vivo weiter zu erforschen, haben die Erfinder Versuchstiere in drei verschiedenen Nagetiermodellen mit etablierter PAH mit der Substanz SGC-CBP30 behandelt, wobei SGC-CBP30 durch intra-tracheale Vernebelung über zwei Wochen lang dreimal wöchentlich verabreicht wurde. Es wurden folgende drei verschiedenen Nagetiermodelle für eine PAH (FHR-PAH, MCT-PAH und SuHx-PAH) getestet: • Fawn-hooded hypertensive Ratten (FHR): Das ist ein genetischer Rattenstamm, bei dem PAH im Alter spontan auftritt und der ähnliche PAH-Anomalien aufweist, wie sie bei IPAH bei Menschen nach 40 Wochen auftreten. • Durch Monocrotalin (MCT) induziertes PAH-Rattenmodell. • Ein SUGEN5416/chronische Hypoxie (SuHx)-Rattenmodell für PAH, bei dem die Ratten eine einmalige Injektion von SUGEN5416 erhielten und anschließend einer chronischen Hypoxie (10% O2) ausgesetzt wurden (SuHx-PAH).
(§2) Für die MCT-PAH wurden männlichen und weiblichen SD-Ratten (Sprague-Dawley-Ratten) subkutan 60 mg/kg MCT (Sigma, Katalog: C2401) injiziert, um PAH zu induzieren. Bei der SuHx-PAH erhielten SD-Ratten eine einmalige subkutane Injektion von SUGEN5416 (20 mg/kg) und wurden drei Wochen lang einer normobaren Hypoxie ausgesetzt, bevor sie für zwei Wochen an die Raumluft zurückkehrten. Zwei Wochen nach der MCT-Injektion bzw. drei Wochen nach der SUGEN5416-Injektion (sobald PAH festgestellt wurde) wurden die Ratten nach dem Zufallsprinzip in vier Gruppen eingeteilt und erhielten zwei Wochen lang dreimal wöchentlich entweder Vehikel (Verabreichung von 1 % Methylcellulose in destilliertem Wasser oder intratracheale Vernebelung von 4 % DMSO in PBS als Negativkontrolle), SGC-CBP30 (Verabreichung von 10 mg/kg in 1 % Methylcellulose + destilliertem Wasser) oder SGC-CBP30 (intratracheale Vernebelung von 275 nmol/kg in 4 % DMSO + PBS). Einjährige männliche und weibliche FHR-Ratten mit etablierter PAH wurden in dieselben vier Gruppen wie beim MCT-Modell eingeteilt und den selben Behandlungsmethoden unterzogen. Für die Vernebelung wurden die Ratten mit 3%igem Isofluran betäubt. Ein 16-Gauge-Katheter wurde in die Luftröhre eingeführt. Ein Vernebler (Aerogen) wurde an den Katheter angeschlossen, und für jede Behandlung wurde ein Volumen von 50 µl SGC-CBP30 oder dessen Vehikel (als Negativkontrolle) verabreicht. Nach zweiwöchiger Behandlung wurde eine Rechtsherzkatheteruntersuchung bei geschlossenem Thorax durchgeführt, um folgende hämodynamischen Daten zu erfassen: Systolischer Rechtsventrikulärer Druck (RVSP), mittlerer PA-Druck (mPAP), Herzzeitvolumen (CO) und Schlagvolumen (SV). Der Gesamtwiderstand der Lunge (TPR) wurde durch Division von mPAP durch CO ermittelt. Nach der hämodynamischen Messung wurden den Ratten Gewebeproben entnommen. Die Experimente wurden gemäß den Richtlinien des Canadian Council on Animal Care durchgeführt. Alle Protokolle wurden von der institutionellen Ethikkommission für Tiere (Tierschutzausschuss der Universität Laval) geprüft und genehmigt (Protokollnummer 2019-018-2). Alle Experimente folgten den Richtlinien für die präklinische Forschung bei PAH.
(§3) Der schwarze Balken zeigt 50 µm an. Die Daten sind als Mittelwert ± SD angegeben und die statistische Analyse wurde mit einem ungepaarten Student's t-Test durchgeführt. FHR, MCT und SU5416/chronische Hypoxie-Ratten: *P<0,05, **P<0,01 und ***P<0,001 gegenüber den mit Vehikel behandelten Gruppen. MCT-Rattenmodell: §P<0,05, §§P<0,01 und §§§P<0,001 gegenüber der unbehandelten Kontrollgruppe. • A: Schematische Darstellung des Versuchsaufbaus für die Behandlung von Fawn-hooded hypertensive Ratten (FHR) mit dem EP300/CREBBP-Inhibitor SGC-CBP30, der selektiv auf die Acetyltransferase EP300/CREBBP wirkt. […]

[2] = system: MCT-PAH; test: Monocrotaline-induced PAH rat model, right heart catheterisation and histology; type: in vivo, Ratten; conditions: MCT-PAH rats, three times weekly for two weeks, intratracheal nebulisation 275 nmol/kg
Excerpt: as §1, §2, §3

[3] = system: PAH-SMCs; test: Hyperproliferative phenotype of PAH smooth muscle cells; type: cell-based, human; conditions: vs DMSO
Excerpt: PAH-FBs wurden mit verschiedenen Konzentrationen der Substanz SGC-CBP30 oder dem Lösungsmittel DMSO inkubiert, um die Zellproliferation und die Induktion von Apoptose 24 Stunden danach zu untersuchen. Die Wirkung der selektiven EP300/CREBBP-Inhibition auf die Zellproliferation wurde durch den Einbau von BrdU (Bromodeoxyuridin, 5-Bromo-2'-Deoxyuridin, BUdR, BrdUrd, Broxuridine) bewertet. Die Wirkung der Substanz SGC-CBP30 oder des Lösungsmittels DMSO auf die Induktion von Apoptose wurde durch Cell Death Detection ELISAPLUS bewertet. Dabei zeigten sich deutliche Unterschiede zwischen der Substanz SGC-CBP30 und dem Lösungsmittel DMSO.
Das therapeutische Potenzial der EP300/CREBBP-Hemmung durch die Substanz SGC-CBP30 wurde untersucht. Dazu wurde die Wirksamkeit auf PAH-FBs und PAH-SMCs geprüft, die aus den Lungenarterien von menschlichen PAH-Patienten und aus den Lungenarterien von Ratten mit MCT-PAH (Rattenmodell mit Monocrotalin) isoliert wurden. […] Die Wirkung der EP300-Hemmung auf das vaskuläre Remodelling wurde durch Quantifizierung der prozentualen medialen Wanddicke in den mit der Substanz SGC-CBP30 inkubierten PCLS im Vergleich zu den mit DMSO inkubierten Kontrollen bewertet. Dabei zeigten sich deutliche Unterschiede zwischen der Substanz SGC-CBP30 und DMSO.

[4] = system: SuHx-PAH; test: SUGEN5416/chronic hypoxia PAH rat model, right heart catheterisation and histology; type: in vivo, Ratten; conditions: SuHx-PAH rats, three times weekly for two weeks, intratracheal nebulisation 275 nmol/kg
Excerpt: as §1, §2, §3

[5] = intratracheal nebulisation 275 nmol/kg, vs vehicle
[6] = start three weeks after SUGEN5416

COc1ccc(CCc2nc3cc(-c4c(C)noc4C)ccc3n2C[C@H](C)N2CCOCC2)cc1Cl [SGC-CBP30, 2-[2-(3-Chloro-4-methoxyphenyl)ethyl]-5-(3,5-dimethyl-1,2-oxazol-4-yl)-1-[(S)-2-(morpholin-4-yl)propyl]-1H-benzimidazole]
molekulare Marker für Myokardhypertrophie [1]: signifikant abgeschwächt | mediale Wanddicke der distalen PAs ([1]; intratracheal nebulisation 275 nmol/kg): signifikant verringert | TPR ([1]; intratracheal nebulisation 275 nmol/kg, mPAP divided by CO): signifikanten Senkung | CO [1, 5]: verbesserten sich nach der Behandlung mit der Substanz SGC-CBP30 bei FHR-PAH und MCT-PAH signifikant | RVSP [1, 5]: signifikanten Senkung | SV [1, 5]: verbesserten sich nach der Behandlung mit der Substanz SGC-CBP30 bei FHR-PAH und MCT-PAH signifikant | mPAP [1, 5]: signifikanten Senkung | RVSP ([2]; start two weeks after MCT): signifikanten Senkung | mPAP ([2]; start two weeks after MCT): signifikanten Senkung | CO [2]: verbesserten sich nach der Behandlung mit der Substanz SGC-CBP30 bei FHR-PAH und MCT-PAH signifikant | SV [2]: verbesserten sich nach der Behandlung mit der Substanz SGC-CBP30 bei FHR-PAH und MCT-PAH signifikant | mediale Wanddicke der distalen PAs [2]: signifikant verringert | TPR ([2]; mPAP divided by CO): signifikanten Senkung | hyperproliferativer Phänotyp [3]: schwächte den hyperproliferativen Phänotyp und die Apoptoserate von PAH-FBs und PAH-SMCs deutlich ab | RVSP [4, 6]: signifikanten Senkung | mPAP [4, 6]: signifikanten Senkung | CO [4]: verbesserte CO und SV auch bei SUGEN5416/chronischer Hypoxie-PAH signifikant | SV [4]: verbesserte CO und SV auch bei SUGEN5416/chronischer Hypoxie-PAH signifikant | mediale Wanddicke der distalen PAs [4]: signifikant verringert | TPR ([4]; mPAP divided by CO): signifikanten Senkung
